Four compounds from ChEMBL document CHEMBL1139192, “Novel bis(indolyl)maleimide pyridinophanes that are potent, selective inhibitors of glycogen synthase kinase-3” (Bioorg Med Chem Lett, 2007) can be followed below.

Assay [1] deals with Receptor-type tyrosine-protein kinase FLT3 (Homo sapiens) (UniProt P36888). The experiment in a line: Residual activity of human Flt3 at 1 uM relative to control.
The target of assay [2] is Mitogen-activated protein kinase 8 (Homo sapiens) (UniProt P45983). The experiment in a line: Inhibition of human JNK1alpha1 at 1 uM relative to control; values are per cent of control.
Mitogen-activated protein kinase 8 (Homo sapiens), sequence (P45983 whole entry): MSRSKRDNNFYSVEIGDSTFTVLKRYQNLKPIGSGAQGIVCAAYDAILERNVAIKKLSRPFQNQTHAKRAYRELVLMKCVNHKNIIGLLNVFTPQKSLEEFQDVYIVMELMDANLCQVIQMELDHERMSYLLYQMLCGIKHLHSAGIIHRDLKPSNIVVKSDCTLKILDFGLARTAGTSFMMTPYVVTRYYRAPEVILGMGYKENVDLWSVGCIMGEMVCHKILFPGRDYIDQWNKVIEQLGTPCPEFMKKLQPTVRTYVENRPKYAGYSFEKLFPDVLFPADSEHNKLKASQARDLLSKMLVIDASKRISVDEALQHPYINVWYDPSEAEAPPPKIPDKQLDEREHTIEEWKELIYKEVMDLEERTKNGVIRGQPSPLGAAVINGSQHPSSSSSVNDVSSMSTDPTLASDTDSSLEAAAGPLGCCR
A further assay is filed under the species Rattus norvegicus. The experiment in a line: Inhibition of rat AMPK at 1 uM relative to control; values are per cent of control.
Assay [3] concerns the target Epidermal growth factor receptor (Homo sapiens) (UniProt P00533). Description: Inhibition of human EGFR at 1 uM relative to control; values are per cent of control.
In assay [4] the target is Protein kinase C beta type (Homo sapiens, UniProt P05771). Description: Residual activity of human PKCbeta2 at 1 uM relative to control.
Protein kinase C beta type, sequence (P05771 2-671 limits assumed): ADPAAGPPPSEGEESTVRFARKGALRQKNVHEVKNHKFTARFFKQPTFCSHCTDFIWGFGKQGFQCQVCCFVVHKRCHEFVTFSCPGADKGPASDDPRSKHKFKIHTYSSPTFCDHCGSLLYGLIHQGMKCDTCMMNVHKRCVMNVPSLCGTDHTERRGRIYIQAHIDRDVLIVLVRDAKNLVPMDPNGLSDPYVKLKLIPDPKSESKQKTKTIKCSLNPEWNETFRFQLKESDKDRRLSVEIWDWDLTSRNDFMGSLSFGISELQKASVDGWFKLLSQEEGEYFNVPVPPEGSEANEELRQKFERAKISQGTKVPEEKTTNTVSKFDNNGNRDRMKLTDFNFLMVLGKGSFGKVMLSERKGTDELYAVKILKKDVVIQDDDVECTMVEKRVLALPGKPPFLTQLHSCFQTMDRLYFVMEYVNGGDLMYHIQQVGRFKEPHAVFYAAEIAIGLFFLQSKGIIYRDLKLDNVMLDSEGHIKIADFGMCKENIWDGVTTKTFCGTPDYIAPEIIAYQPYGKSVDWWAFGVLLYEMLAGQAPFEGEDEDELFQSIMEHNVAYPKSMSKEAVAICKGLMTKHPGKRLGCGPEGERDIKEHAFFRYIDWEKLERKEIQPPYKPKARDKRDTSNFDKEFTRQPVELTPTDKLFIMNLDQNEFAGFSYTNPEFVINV
The species named for assay [5] is Homo sapiens. The experiment in a line: Residual activity of human CDK3/Cyclin E at 1 uM relative to control.
In assay [6] the target is T1, Dual specificity mitogen-activated protein kinase kinase 6 (Homo sapiens) (UniProt P52564).
T1 sequence (whole entry): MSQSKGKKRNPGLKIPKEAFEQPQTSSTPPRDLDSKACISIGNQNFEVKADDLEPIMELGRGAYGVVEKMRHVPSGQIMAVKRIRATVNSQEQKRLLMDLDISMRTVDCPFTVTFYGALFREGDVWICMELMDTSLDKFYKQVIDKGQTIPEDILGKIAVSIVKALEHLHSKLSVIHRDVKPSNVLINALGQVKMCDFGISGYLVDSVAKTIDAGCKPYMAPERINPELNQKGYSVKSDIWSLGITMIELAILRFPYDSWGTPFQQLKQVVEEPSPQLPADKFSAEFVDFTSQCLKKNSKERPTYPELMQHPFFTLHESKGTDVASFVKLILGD
The experiment in a line: Inhibition of human MKK6 at 1 uM relative to control; values are per cent of control.

The species entered for assay [7] is Homo sapiens. Description: Inhibition of human PKA at 1 uM relative to control; values are per cent of control.
The target in assay [8] is 3-phosphoinositide-dependent protein kinase 1 (Homo sapiens) (UniProt O15530). Description: Inhibition of human PDK1 at 1 uM relative to control; values are per cent of control.
3-phosphoinositide-dependent protein kinase 1 (Homo sapiens), sequence (O15530 whole entry, looked up): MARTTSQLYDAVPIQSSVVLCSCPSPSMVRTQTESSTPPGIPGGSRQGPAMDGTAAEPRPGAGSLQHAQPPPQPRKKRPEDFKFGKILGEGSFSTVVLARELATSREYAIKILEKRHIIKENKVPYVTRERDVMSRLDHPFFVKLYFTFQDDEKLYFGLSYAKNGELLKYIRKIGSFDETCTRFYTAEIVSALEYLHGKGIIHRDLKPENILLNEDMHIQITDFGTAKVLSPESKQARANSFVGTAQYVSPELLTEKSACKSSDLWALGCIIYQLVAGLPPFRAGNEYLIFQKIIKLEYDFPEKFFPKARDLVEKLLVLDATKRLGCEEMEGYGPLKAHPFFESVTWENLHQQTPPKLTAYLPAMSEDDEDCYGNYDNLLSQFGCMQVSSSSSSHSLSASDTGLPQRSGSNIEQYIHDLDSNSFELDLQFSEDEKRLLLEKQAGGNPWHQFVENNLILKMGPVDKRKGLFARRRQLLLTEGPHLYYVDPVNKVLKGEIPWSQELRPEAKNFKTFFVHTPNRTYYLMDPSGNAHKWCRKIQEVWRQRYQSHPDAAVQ
Assay [9] concerns the target T2, Calcium/calmodulin-dependent protein kinase type IV (Homo sapiens) (UniProt Q16566).
T2 sequence (whole entry): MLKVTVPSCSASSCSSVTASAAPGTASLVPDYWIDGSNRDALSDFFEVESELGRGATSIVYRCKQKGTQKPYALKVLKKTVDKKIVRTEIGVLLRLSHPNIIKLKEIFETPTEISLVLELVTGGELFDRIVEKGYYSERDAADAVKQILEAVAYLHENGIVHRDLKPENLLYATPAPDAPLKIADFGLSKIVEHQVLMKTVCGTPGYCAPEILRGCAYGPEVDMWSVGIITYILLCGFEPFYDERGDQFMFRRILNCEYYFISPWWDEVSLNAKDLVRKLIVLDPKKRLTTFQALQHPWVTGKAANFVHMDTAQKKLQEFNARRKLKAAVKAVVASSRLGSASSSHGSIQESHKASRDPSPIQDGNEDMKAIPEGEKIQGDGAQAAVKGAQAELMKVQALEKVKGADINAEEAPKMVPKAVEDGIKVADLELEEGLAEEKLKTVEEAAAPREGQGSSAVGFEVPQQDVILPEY
Description: Residual activity of human CaMK4 at 1 uM relative to control.

In assay [10] the target is Tyrosine-protein kinase Lyn (Homo sapiens) (UniProt P07948). Description: Inhibition of human Lyn at 1 uM relative to control; values are per cent of control.
The target in assay [11] is Proto-oncogene tyrosine-protein kinase Src (Homo sapiens) (UniProt P12931). Description: Residual activity of human cSRC at 1 uM relative to control.
For assay [12], the target named is Tyrosine-protein kinase Lck (Homo sapiens) (UniProt P06239). The experiment in a line: Inhibition of human Lck at 1 uM relative to control; values are per cent of control.
Tyrosine-protein kinase Lck (Homo sapiens), sequence (P06239 2-509 limits assumed): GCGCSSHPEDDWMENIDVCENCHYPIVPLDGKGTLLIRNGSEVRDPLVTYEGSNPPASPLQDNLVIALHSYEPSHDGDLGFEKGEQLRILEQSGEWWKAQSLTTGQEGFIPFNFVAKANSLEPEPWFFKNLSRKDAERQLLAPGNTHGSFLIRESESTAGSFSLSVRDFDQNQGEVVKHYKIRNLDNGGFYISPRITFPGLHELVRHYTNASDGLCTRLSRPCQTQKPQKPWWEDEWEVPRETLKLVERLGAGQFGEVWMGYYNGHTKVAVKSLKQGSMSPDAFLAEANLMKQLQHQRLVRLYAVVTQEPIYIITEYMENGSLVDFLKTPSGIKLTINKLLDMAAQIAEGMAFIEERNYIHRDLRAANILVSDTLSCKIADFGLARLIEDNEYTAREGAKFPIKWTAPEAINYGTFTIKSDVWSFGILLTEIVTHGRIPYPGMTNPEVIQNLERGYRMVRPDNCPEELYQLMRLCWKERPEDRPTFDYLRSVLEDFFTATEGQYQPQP
In assay [13] the target is T3, Dual specificity mitogen-activated protein kinase kinase 4 (Mus musculus) (UniProt P47809).
T3 sequence (whole entry): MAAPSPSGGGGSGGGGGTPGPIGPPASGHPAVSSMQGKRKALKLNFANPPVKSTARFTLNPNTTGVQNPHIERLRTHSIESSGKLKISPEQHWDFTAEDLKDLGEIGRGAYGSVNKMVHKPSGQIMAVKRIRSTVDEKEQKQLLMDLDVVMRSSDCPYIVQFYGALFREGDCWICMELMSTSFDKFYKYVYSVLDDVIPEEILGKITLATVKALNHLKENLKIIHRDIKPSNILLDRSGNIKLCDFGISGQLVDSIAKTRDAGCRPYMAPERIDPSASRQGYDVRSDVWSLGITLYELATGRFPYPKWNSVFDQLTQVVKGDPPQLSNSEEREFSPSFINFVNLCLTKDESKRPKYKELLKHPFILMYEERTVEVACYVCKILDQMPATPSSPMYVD
Description: Inhibition of mouse MKK4 Met at 1 uM relative to control; values are per cent of control.

Assay [14] deals with Serine/threonine-protein kinase PAK 2 (Homo sapiens) (UniProt Q13177). The experiment in a line: Inhibition of human PAK2 at 1 uM relative to control; values are per cent of control.
Serine/threonine-protein kinase PAK 2 (Homo sapiens), sequence (Q13177 whole entry): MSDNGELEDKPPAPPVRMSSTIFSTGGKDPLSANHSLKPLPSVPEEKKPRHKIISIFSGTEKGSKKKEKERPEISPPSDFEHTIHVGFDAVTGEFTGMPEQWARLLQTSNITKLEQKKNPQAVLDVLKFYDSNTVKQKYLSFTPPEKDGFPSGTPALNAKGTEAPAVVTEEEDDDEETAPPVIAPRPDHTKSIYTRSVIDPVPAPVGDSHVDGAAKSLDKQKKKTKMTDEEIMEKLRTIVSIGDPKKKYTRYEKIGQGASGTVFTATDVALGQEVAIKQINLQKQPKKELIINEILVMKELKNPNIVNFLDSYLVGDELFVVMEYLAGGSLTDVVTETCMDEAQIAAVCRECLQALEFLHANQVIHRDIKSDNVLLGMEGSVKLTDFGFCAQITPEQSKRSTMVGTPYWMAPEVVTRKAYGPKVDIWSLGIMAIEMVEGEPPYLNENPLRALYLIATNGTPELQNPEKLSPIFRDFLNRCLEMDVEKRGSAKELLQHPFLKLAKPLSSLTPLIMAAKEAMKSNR
In assay [15] the target is Ribosomal protein S6 kinase beta-1 (Homo sapiens) (UniProt P23443). Description: Inhibition of human p70S6K at 1 uM relative to control; values are per cent of control.
Ribosomal protein S6 kinase beta-1 (Homo sapiens), sequence (P23443 whole entry, looked up): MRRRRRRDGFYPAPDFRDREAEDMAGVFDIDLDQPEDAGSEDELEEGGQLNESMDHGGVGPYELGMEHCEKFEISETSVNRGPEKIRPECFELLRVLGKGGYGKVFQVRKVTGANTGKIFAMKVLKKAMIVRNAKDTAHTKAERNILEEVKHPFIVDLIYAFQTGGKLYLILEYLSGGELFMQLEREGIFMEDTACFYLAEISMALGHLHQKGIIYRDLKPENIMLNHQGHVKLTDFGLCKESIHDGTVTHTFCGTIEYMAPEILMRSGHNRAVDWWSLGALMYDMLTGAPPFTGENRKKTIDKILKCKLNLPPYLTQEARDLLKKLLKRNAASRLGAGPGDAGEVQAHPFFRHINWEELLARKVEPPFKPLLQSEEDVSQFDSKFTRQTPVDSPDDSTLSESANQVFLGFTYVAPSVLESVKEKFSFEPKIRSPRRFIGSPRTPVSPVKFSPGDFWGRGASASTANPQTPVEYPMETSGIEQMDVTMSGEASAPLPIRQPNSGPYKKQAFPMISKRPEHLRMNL
The species named for assay [16] is Homo sapiens. The experiment in a line: Residual activity of human PAR1B-alpha at 1 uM relative to control.
Assay [17] has as its target Angiopoietin-1 receptor (Homo sapiens) (UniProt Q02763). Description: Residual activity of human Tie2 at 1 uM relative to control.
For assay [18], the species on record is Homo sapiens. The experiment in a line: Inhibition of human CDK2/Cyclin E at 1 uM relative to control; values are per cent of control.
Assay [19] addresses MAP kinase-activated protein kinase 2 (Homo sapiens) (UniProt P49137). The experiment in a line: Inhibition of MAPKAPK2 at 1 uM relative to control; values are per cent of control.

Receptor-type tyrosine-protein kinase FLT3 (Homo sapiens), sequence (P36888 whole entry): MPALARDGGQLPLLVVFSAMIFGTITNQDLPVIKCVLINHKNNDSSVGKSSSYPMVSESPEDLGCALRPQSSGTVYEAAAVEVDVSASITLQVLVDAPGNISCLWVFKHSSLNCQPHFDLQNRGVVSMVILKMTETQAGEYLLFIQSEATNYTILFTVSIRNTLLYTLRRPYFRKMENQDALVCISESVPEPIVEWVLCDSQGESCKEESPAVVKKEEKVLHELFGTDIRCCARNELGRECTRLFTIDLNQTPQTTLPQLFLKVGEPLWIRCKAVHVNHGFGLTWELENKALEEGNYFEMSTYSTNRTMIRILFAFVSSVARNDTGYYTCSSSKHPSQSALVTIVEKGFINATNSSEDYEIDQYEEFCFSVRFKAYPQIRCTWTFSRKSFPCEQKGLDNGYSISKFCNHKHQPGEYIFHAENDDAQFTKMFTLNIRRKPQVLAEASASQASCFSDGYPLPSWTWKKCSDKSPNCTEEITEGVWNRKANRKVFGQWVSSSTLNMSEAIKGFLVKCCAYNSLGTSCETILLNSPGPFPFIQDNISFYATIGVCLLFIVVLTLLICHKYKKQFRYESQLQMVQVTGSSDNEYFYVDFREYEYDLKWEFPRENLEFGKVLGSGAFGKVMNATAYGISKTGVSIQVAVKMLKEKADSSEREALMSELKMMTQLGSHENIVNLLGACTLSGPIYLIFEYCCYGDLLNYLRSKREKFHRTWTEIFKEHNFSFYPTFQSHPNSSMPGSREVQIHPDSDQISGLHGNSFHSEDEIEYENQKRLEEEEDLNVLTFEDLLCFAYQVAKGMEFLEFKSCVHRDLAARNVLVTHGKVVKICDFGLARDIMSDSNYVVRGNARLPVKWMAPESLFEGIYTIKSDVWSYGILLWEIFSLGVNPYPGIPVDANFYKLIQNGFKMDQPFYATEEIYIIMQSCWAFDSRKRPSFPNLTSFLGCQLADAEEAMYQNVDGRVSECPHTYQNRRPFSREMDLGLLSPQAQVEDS
MAP kinase-activated protein kinase 2 (Homo sapiens), sequence (P49137 whole entry, looked up): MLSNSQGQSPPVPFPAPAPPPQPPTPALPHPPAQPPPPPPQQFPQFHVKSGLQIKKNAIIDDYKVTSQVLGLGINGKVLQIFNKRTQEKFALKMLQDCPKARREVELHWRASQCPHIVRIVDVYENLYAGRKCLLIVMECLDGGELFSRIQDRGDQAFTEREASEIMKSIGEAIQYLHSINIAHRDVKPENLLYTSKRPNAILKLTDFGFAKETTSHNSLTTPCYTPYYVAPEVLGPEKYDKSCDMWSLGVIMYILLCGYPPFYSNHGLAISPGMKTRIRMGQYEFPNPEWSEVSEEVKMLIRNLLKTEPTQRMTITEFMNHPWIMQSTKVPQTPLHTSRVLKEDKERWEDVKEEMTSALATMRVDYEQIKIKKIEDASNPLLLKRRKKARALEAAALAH

With `O=C1NC(=O)C2=C1c1cn(c3ccccc13)CCCc1ccc(c(N3CCCC3)n1)CCCn1cc2c2ccccc21`, the residual activity came to 85% in assay [1]; 104% in [2]; 99% in the assay filed under Rattus norvegicus; 104% in [3]; 77% in [4]; 106% in the assay listed under Homo sapiens [5]. Besides, the residual activity in [6] worked out at 85%; in the assay filed under Homo sapiens [7] it was 102%; in assay [8], 100%; in assay [9], 99%; in assay [10], 78%; in [11], 113%. In addition, the residual activity in [12] is 90%; in assay [13], 113%; in [14] it was 102%; in assay [15] it was 84%; in the assay listed under Homo sapiens [16], 101%; in [17], 107%. Moreover, the residual activity in the assay listed under Homo sapiens [18] was 88%.

With `O=C1NC(=O)C2=C1c1cn(c3ccccc13)CCCc1cc(nc(N3CCCC3)c1)CCCn1cc2c2ccccc21`, the residual activity in [1] was found to be 77%; in [19], 108%; in assay [2], 108%; in the assay listed under Rattus norvegicus it was 105%; in assay [3], 108%; in assay [4], 74%. Besides, the residual activity in the assay filed under Homo sapiens [5] was 86%; in assay [6] it was 91%; in the assay listed under Homo sapiens [7], 104%; in assay [8], 107%; in assay [9] it was 112%; in assay [10] it was 87%. For the same compound, the residual activity came to 97% in assay [11]; 99% in [12]; 119% in [13]; 100% in assay [14]; 95% in assay [15]; 96% in the assay listed under Homo sapiens [16]. Further, the residual activity in assay [17] amounted to 96%; in the assay filed under Homo sapiens [18], 88%.

Regarding `CN(C)c1nc2ccc1CCCn1cc(c3ccccc31)C1=C(C(=O)NC1=O)c1cn(c3ccccc13)CC2`, the residual activity in assay [1] is 86%; in assay [19], 98%; in assay [2], 102%; in the assay listed under Rattus norvegicus, 101%; in [3] it was 94%; in assay [4] it was 64%. For the same compound, the residual activity in the assay listed under Homo sapiens [5] was found to be 59%; in assay [6] it was 102%; in the assay listed under Homo sapiens [7], 90%; in assay [8], 115%; in assay [9], 92%; in assay [10], 107%. Moreover, the residual activity in assay [11] came to 81%; in [12], 96%; in assay [13], 130%; in assay [14] it was 93%; in assay [15], 98%; in the assay listed under Homo sapiens [16], 94%. For the same compound, the values for the residual activity (in [17]; in the assay filed under Homo sapiens [18]) were 110% and 54%, respectively.

Consider `CN(C)c1cc2cc(n1)CCCn1cc(c3ccccc31)C1=C(C(=O)NC1=O)c1cn(c3ccccc13)CCC2`, for which the residual activity in assay [1] was 71%; in assay [19] it was 101%; in assay [2] it was 105%; in the assay listed under Rattus norvegicus, 101%; in assay [3] it was 96%; in [4], 68%. Besides, the residual activity was determined as 89% in the assay listed under Homo sapiens [5]; 86% in assay [6]; 95% in the assay filed under Homo sapiens [7]; 104% in assay [8]; 113% in assay [9]; 76% in [10]. For the same compound, the residual activity in assay [11] was found to be 105%; in assay [12], 100%; in assay [13], 119%; in assay [14] it was 103%; in assay [15], 91%; in the assay filed under Homo sapiens [16] it was 100%. The residual activity in [17] turned out to be 109%; in the assay filed under Homo sapiens [18], 84%.
